From patent US20100256136A1, “Method for Enhancing Pdt Efficacy Using a Tyrosine Kinase Inhibitor” (priority 2006, published 2010)
Counter-ions that a name gives are not always drawn.

Experiments:
[1] = test system: RIF-1 cells; assay: In vitro PDT phototoxicity (MTT assay) with ABCG2 modulators; settings: for Increase of HPPH-PDT phototoxicity: 10 μM modulator, high light doses
[2] = test system: Colo 26 cells; assay: Photosensitizer efflux, 1 h in drug-free medium at 37° C. or 4° C.; format: cell-based, murine; settings: Colo 26 cells (ABCG2+), 1 h efflux
Method: (§1) Cells were plated in 6-well plates at a density of 3×10^5 cells per well and incubated overnight. […] Cells were cultured for an additional 4 hours, then washed with cold culture medium and with PBS. Photosensitizer levels were determined using Solvable® (Perkin Elmer, Boston, MA) extraction (17). Briefly, the cells were solubilized in 0.5 ml Solvable® at 37° C. overnight. The Solvable® extract then was diluted 1:1 with PBS, the photosensitizer levels were determined by fluorometry, and concentrations were extrapolated from standard curves. Intracellular photosensitizer levels were normalized to intracellular protein content. To study photosensitizer efflux, cells were incubated with photosensitizer for 4 hours, then washed once with cold medium, resuspended in drug-free medium, placed at 37° C. or 4° C. for 1 hour and washed once with cold PBS. Photosensitizer levels were then determined using Solvable® extraction, as above.

[3] = test system: RIF-1 cells; assay: as above; format: cell-based, murine; settings: RIF-1 cells (ABCG2+), 1 h efflux
Method: as §1

[4] = test system: BCC-1 cells; assay: as above; format: cell-based, human; settings: BCC-1 cells (ABCG2+), 1 h efflux
Method: as §1

[5] = test system: FaDu cells; assay: as above; format: cell-based, human; settings: lack ABCG2 expression, 1 h efflux
Method: as §1

[6] = test system: HEK-293 R482 cells (ABCG2+); assay: HPPH uptake and efflux in ABCG2-transfected cells; format: cell-based
Source text: (§2) In general known cell lines were used. FaDu human hypopharyngeal squamous cell carcinoma, RIF-1 murine radiation-induced fibrosarcoma and Colo 26 murine colon carcinoma cells were obtained from the American Type Culture Collection (ATCC; Manassas, VA). BCC-1/KMC, a human basal cell carcinoma cell line (14), was provided by Dr. Tak-Wah Wong, National Cheng Kung University Hospital, Tainan, Taiwan. HEK-293 cells transfected with either an empty pcDNA3 vector or a pcDNA3 vector containing full-length ABCG2 (HEK-293 pcDNA or HEK-293 […]) were provided by Dr. Susan Bates at the U.S. National Institute of Health, Bethesda, MD.. Cells were plated in 6-well plates at a density of 3×10^5 cells per well and incubated overnight. […] Cells were cultured for an additional 4 hours, then washed with cold culture medium and with PBS. Photosensitizer levels were determined using Solvable® (Perkin Elmer, Boston, MA) extraction (17). Briefly, the cells were solubilized in 0.5 ml Solvable® at 37° C. overnight. The Solvable® extract then was diluted 1:1 with PBS, the photosensitizer levels were determined by fluorometry, and concentrations were extrapolated from standard curves. Intracellular photosensitizer levels were normalized to intracellular protein content. […] Photosensitizer levels were then determined using Solvable® extraction, as above.

[7] = test system: HEK-293 pcDNA cells (ABCG2-); assay: HPPH efflux in empty-vector control cells; format: cell-based; settings: HEK293-pcDNA3 cells
Source text: as §2

[8] = test system: ABCG2; assay: ABCG2 substrate status concluded from efflux and phototoxicity studies; format: cell-based; settings: conclusion from efflux and phototoxicity data
Method: as §1

[9] = test system: HEK-293 pcDNA cells; assay: In vitro PDT phototoxicity (MTT assay) with ABCG2 modulators; format: cell-based; settings: 0.8 μM HPPH
[10] = test system: RIF-1 tumors
Method: (§3) To determine photosensitizer levels, samples of tumor, skin and muscle tissue were harvested 24 hours after the HPPH administration and dissolved in Solvable at 63° C. overnight. HPPH levels were measured by fluorometry as described above. In other experiments mice were administered ^14C-labelled HPPH and photosensitizer levels in the harvested tissues were determined by scintillation counting. […] After 24 hours, the tumors were treated with 665 nm light from an argon ion laser-pumped dye laser (Spectra Physics, Mountain View CA) with a fluence of 72 J/cm^2 delivered at a rate of 14 mW/cm^2. […] Tumors were measured every 1 to 3 days, and mice were sacrificed when tumor volumes exceeded 400 mm^3.

[11] = biological target: T1, ABCG2 (Homo sapiens, UniProt Q9UNQ0); settings: literature (refs 8, 10); cited from earlier work
T1 sequence (Q9UNQ0 1-655): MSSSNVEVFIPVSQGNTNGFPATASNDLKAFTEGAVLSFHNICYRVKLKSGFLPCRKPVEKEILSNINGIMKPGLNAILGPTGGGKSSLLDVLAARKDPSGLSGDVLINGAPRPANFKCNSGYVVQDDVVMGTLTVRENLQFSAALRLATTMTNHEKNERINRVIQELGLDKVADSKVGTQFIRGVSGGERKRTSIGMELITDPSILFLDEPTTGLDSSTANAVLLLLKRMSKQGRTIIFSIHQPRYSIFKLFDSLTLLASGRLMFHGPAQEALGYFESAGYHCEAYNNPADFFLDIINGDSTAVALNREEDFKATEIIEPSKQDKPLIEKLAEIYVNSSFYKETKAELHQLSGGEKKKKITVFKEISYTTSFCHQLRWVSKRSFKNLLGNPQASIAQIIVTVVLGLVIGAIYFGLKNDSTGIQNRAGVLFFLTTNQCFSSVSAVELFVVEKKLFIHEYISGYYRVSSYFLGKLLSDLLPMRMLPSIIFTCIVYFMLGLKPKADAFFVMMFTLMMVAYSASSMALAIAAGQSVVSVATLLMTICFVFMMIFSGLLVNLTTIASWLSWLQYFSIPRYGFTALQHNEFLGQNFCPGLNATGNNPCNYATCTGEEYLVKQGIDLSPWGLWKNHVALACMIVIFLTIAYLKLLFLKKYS

[12] = test system: HEK-293 R482 cells; assay: Photosensitizer accumulation with ABCG2 modulators; format: cell-based; settings: 10 μM modulator, 0.8 μM HPPH, four hours, p<0.05
Method: as §1

[13] = test system: HEK-293 pcDNA cells; assay: Photosensitizer accumulation with ABCG2 modulators; format: cell-based; settings: 10 μM modulator, 0.8 μM HPPH, four hours
Method: as §1

[14] = test system: RIF-1 cells; format: cell-based, murine; settings: for Increase of intracellular HPPH levels: 0.8 μM HPPH, 10 μM modulator, p<0.01
Method: as §1

[15] = test system: Colo 26 cells; assay: Photosensitizer accumulation with ABCG2 modulators; format: cell-based, murine; settings: 0.8 mM ALA, with vs without imatinib mesylate
Method: as §1

[16] = test system: BCC-1 cells; assay: In vitro PDT phototoxicity (MTT assay) with ABCG2 modulators; format: cell-based, human; settings: BCC-1 cells (ABCG2+), 0.4 μM HPPH, 10 μM imatinib mesylate
[17] = test system: FaDu cells; assay: as above; format: cell-based, human; settings: FaDu cells (lack ABCG2), 0.8 μM HPPH, 10 or 20 μM imatinib mesylate
[18] = test system: Colo 26 cells; assay: as above; format: cell-based, murine; settings: ALA, 10 μM imatinib mesylate
[19] = test system: RIF-1 tumors; assay: HPPH levels in tumor, skin and muscle of tumor-bearing mice; format: in vivo, C3H/HeJCr mice; settings: same regimen as tumor levels, 24 hours after HPPH
Method: as §3

Compound: COc1cc2ncnc(Nc3ccc(F)c(Cl)c3)c2cc1OCCCN1CCOCC1 [gefitnib, N-(3-chloro-4-fluoro-phenyly)-7-methoxy-6(3-morpholin-4-ylpropoxy) quinazolin-4-amine]
- Effect on HPPH-PDT phototoxicity ([1]; 0.8 μM HPPH, CsA 10 μM, gefitinib 5 μM): effective
- Dark toxicity ([1]; 5 μM): significant dark toxicity

Compound: CCCCCCOC(C)c1c(C)c2cc3nc(c4c5[nH]c(cc6nc(cc1[nH]2)C(C)=C6CC)c(C)c5C(=O)C4)[C@@H](CCC(=O)O)[C@@H]3C (stereo partly shown) [HPPH, 2-[1-hexyloxyethyl]-2-devinyl pyropheophorbide-a]
- Intracellular HPPH level after efflux at 37° C. compared to 4° C. [2]: significantly (p<0.01) lower
- Intracellular HPPH level after efflux at 37° C. compared to 4° C. [3]: significantly (p<0.01) lower
- Intracellular HPPH level after efflux at 37° C. compared to 4° C. [4]: significantly (p<0.01) lower
- HPPH content following efflux at 37° C. and 4° C. [5]: did not differ significantly
- Intracellular HPPH level after efflux at 4° C. compared to 37° C. ([6]; HEK-293 R482 cells, 1 h efflux): significantly (p<0.05) higher
- HPPH levels after uptake (0 hour group), ABCG2- HEK-293 pcDNA3 cells compared to ABCG2+ HEK-293 R482 cells ([6]; after 4 h uptake): significantly (p<0.05) higher
- Temperature-dependent changes in efflux of HPPH [7]: no temperature-dependent changes
- Substrate for ABCG2 [8]: ABCG2 substrate
- Sensitivity to HPPH-PDT, HEK-293 pcDNA cells compared to HEK-293 R482 cells ([9]; no modulator): more sensitive
- Time for 50% of the tumors to grow to 400 mm^3 ([10]; HPPH-PDT treatment alone: 0.2 μmol/kg HPPH, 24 hours later 72 J/cm^2 665 nm light at 14 mW/cm^2): 6 days

Compound: pyropheophorbide-a methyl ester
- Transport by ABCG2 [11]: transports

Compound: Cc1ccc(NC(=O)c2ccc(CN3CCN(C)CC3)cc2)cc1Nc1nccc(-c2cccnc2)n1 [imatinib mesylate, 4[(4-methyl-1-piperazininyl)methyl]-N-(4-methyl-3-[(4-(3-pyidinyl)-2-pyrimidinyl)amino)-phenyl] benzamide methane sulfonate]
- Effect on intracellular HPPH levels [12]: increased
- Effect on HPPH accumulation [13]: no effect
- Effect on intracellular levels of BPD-MA ([14]; 0.14 μM BPD-MA, with vs without imatinib mesylate): increased
- Increase of intracellular HPPH levels [14]: ~4 fold
- Effect on intracellular levels of ALA-induced PpIX [15]: increased
- Effect on sensitivity to HPPH-PDT ([9]; HEK-293 pcDNA3 cells, pretreatment with 10 μM): no effect
- Effect on HPPH-PDT phototoxicity [16]: increased
- Effect on HPPH-PDT phototoxicity [17]: not
- Effect on phototoxicity of PpIX [18]: increased
- Effect on HPPH levels in skin and muscle [19]: less effect
- Anti-tumor effects of imatinib mesylate alone, without PDT ([10]; brief course, 4 x 200 mg/kg oral gavage): no anti-tumor effects
- Observable toxicity ([10]; mouse, in vivo): no observable toxicity
- Effect on phototoxicity of BPD-MA ([1]; 0.14 μM BPD-MA, 10 μM imatinib mesylate): increased
- Increase of HPPH-PDT phototoxicity ([1]; 0.8 μM HPPH): ~2 logs
- Effect on phototoxicity of HPPH-lactose-PDT ([1]; 1.6 μM HPPH-Lactose, 10 μM imatinib mesylate): did not increase
- Effect on phototoxicity of Photofrin-PDT ([1]; 2 μg/ml Photofrin, 10 μM imatinib mesylate): did not increase

Compound: C=Cc1c(C)c2cc3nc(c(CC(=O)O)c4[nH]c(cc5nc(cc1[nH]2)C(C)=C5CC)c(C)c4C(=O)O)[C@@H](CCC(=O)O)[C@@H]3C [chlorin e6]
- Transport by ABCG2 [11]: transports

Compound: C=CC1=C(C)c2cc3[nH]c(cc4nc(cc5[nH]c(cc1n2)c(C)c5CCC(=O)O)C(CCC(=O)O)=C4C)c(C)c3C=C [5-aminolevulinic acid (ALA)-induced PpIX, protoporphyrin IX]
- Transport by ABCG2 [11]: transports

Compound: COc1ccc2c3c([nH]c2c1)[C@H](C=C(C)C)N1C(=O)[C@@H]2CCCN2C(=O)[C@@H]1C3 [FTC, fumitremorgin C]
- Increase of intracellular HPPH levels [14]: ~4 fold
- Increase of HPPH-PDT phototoxicity ([1]; 0.8 μM HPPH): ~2 logs

Compound: C=Cc1c(C)c2cc3nc(c4c5[nH]c(cc6nc(cc1[nH]2)C(C)=C6CC)c(C)c5C(=O)[C@@H]4C(=O)OC)[C@@H](CCC(=O)O)[C@@H]3C [pheophorbide α]
- Transport by ABCG2 [11]: specific substrate
